One experiment concerns the target T1, MNK1 (Homo sapiens, UniProt Q9BUB5).
T1 construct: All protein kinases were of human origin and encoded full length proteins, unless indicated otherwise; made in house
Briefly: MNK1 protein kinase assay. To be noted: for remaining activity at 10 µM: 10 μM compound; for residual kinase activity MNK1: 1 μm compound; for remaining activity at 1 µM: 1 μM compound. It counts as biochemical. The text has this:
(§1) All protein kinases were of human origin and encoded full length proteins, unless indicated otherwise. They were either expressed as glutathione S-transferase (GST) fusion proteins in Escherichia Coli or as hexahistidine (His6)-tagged proteins in insect Sf21 cells. GST fusion proteins were purified by affinity chromatography on glutathione-Sepharose, and His6-tagged proteins on nickel/nitriloacetate-agarose. The procedures for expressing some of the protein kinases used herein have been detailed previously.^8,9 The following sections outline the DNA vectors synthesised and the procedures used to express and purifying protein kinases that have not been reported previously.
(§2) All assays (25.5 μl) were carried out at room temperature (21° C.) and were linear with respect to time and enzyme concentration under the conditions used. Assays were performed for 30 min using Multidrop Micro reagent dispensers (Thermo Electron Corporation, Waltham, Mass. 02454, USA) in a 96-well format. The concentration of magnesium acetate in the assays was 10 mM and the [γ-33P] ATP (800 cpm/pmol) was used at 5, 20 or 50 μM as indicated, in order to be at or below the Km for ATP for each enzyme. Protein kinases assayed at 5 μM ATP were: —ERK1, ERK8, PKBα, MARK3, Aurora C. Protein kinases assayed at 20 μM ATP were: —JNK1, PDK1, CHK1, CHK2, CDK2 and Aurora B. Protein kinases assayed at 50 μM ATP were: —MNK2, IKKepsilon and TBK1.
(§3) The assays were initiated with MgATP, stopped by addition of 5 μl of 0.5 M orthophosphoric acid and spotted on to P81 filterplates using a unifilter harvester (PerkinElmer, Boston, Mass. 02118, USA). The IC50 values of inhibitors were determined after carrying out assays at 10 different concentrations of each compound.
(§4) Unless stated otherwise, enzymes were diluted in 50 mM Tris/HCl pH 7.5, 0.1 mM EGTA, 1 mg/ml BSA, 0.1% (v/v) 2-mercaptoethanol and assayed in 50 mM Tris/HCl pH 7.5, 0.1 mM EGTA, 0.1% (v/v) 2-mercaptoethanol.

The next experiment addresses T2, MAPKAP-K2 (Homo sapiens, UniProt P49137).
T2 construct: All protein kinases were of human origin and encoded full length proteins, unless indicated otherwise; made in house
Description: MAPKAP-K2 protein kinase assay. The class given is biochemical. To be noted: for remaining activity at 10 µM: 10 μM compound; for residual kinase activity MAPKAP-K2: 1 μm compound; for remaining activity at 1 µM: 1 μM compound.
Excerpt: as §1, §2, §3, §4

Another experiment deals with T3, GSK3b (Homo sapiens, UniProt P49841).
T3 construct: All protein kinases were of human origin and encoded full length proteins, unless indicated otherwise; made in house
T3 sequence (P49841 whole entry): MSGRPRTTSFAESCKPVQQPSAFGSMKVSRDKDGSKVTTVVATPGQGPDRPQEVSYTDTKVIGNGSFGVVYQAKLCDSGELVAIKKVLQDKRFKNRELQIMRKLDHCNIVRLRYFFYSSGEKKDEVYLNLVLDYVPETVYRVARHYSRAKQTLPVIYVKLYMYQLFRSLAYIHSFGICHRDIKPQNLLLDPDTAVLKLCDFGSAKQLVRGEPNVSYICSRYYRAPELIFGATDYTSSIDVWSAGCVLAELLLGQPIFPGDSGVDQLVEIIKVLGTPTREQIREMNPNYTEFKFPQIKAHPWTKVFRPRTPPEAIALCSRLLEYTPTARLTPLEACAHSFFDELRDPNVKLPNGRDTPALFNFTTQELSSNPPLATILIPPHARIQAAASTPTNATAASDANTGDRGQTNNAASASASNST
Briefly: GSK3b protein kinase assay. It counts as biochemical. Particulars: for remaining activity at 10 µM: 10 μM compound; for residual kinase activity GSK3b: 1 μm compound; for remaining activity at 1 µM: 1 μM compound.
Excerpt: as §1, §2, §3, §4

The target in a further experiment is T4, BRSK2 (Homo sapiens, UniProt Q8IWQ3).
T4 construct: All protein kinases were of human origin and encoded full length proteins, unless indicated otherwise; made in house
T4 sequence (Q8IWQ3 1-736): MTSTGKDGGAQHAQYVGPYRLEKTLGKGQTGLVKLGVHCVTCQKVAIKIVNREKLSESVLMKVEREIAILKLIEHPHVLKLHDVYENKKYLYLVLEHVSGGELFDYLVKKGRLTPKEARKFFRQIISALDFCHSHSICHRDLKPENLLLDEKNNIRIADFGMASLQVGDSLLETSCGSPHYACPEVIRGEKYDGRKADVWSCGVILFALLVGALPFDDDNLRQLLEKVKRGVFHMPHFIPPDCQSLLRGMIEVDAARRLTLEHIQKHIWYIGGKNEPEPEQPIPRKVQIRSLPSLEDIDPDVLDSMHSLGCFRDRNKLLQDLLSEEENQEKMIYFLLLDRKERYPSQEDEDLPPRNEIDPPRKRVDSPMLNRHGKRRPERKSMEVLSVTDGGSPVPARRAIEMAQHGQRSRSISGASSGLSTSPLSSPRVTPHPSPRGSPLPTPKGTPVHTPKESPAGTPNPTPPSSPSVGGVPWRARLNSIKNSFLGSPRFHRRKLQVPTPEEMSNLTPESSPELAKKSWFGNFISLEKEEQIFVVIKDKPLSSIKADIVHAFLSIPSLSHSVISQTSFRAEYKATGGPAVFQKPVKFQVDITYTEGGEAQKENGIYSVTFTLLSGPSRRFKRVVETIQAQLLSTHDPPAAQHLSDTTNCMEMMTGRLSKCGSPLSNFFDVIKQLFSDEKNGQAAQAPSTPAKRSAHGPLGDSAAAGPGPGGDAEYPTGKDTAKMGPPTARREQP
Briefly: BRSK2 protein kinase assay. The class given is biochemical. Particulars: for remaining activity at 10 µM: 10 μM compound; for residual kinase activity BRSK2: 1 μm compound; for remaining activity at 1 µM: 1 μM compound.
Excerpt: as §1, §2, §3, §4

In a further experiment the target is T5, HIPK2 (Homo sapiens, UniProt Q9H2X6).
T5 construct: All protein kinases were of human origin and encoded full length proteins, unless indicated otherwise; made in house
T5 sequence (Q9H2X6 165-564 limits assumed): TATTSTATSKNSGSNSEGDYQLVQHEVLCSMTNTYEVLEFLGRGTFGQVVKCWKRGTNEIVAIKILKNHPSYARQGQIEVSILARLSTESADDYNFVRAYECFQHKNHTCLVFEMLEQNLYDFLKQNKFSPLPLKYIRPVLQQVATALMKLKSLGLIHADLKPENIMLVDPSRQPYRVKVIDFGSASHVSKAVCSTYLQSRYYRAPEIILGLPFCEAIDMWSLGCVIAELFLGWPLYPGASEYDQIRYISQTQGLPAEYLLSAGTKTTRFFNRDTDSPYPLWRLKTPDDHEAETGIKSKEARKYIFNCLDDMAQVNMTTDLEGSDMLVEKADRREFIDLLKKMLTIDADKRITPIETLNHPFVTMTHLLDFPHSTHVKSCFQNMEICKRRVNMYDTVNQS
Description: HIPK2 protein kinase assay. The class given is biochemical. Particulars: for remaining activity at 10 µM: 10 μM compound; for residual kinase activity HIPK2: 1 μm compound; for remaining activity at 1 µM: 1 μM compound.
Excerpt: as §1, §2, §3, §4

The target of a further experiment is T6, FGF-R1 (Homo sapiens, UniProt P11362).
T6 construct: All protein kinases were of human origin and encoded full length proteins, unless indicated otherwise; made in house
T6 sequence (P11362 400-820 limits assumed): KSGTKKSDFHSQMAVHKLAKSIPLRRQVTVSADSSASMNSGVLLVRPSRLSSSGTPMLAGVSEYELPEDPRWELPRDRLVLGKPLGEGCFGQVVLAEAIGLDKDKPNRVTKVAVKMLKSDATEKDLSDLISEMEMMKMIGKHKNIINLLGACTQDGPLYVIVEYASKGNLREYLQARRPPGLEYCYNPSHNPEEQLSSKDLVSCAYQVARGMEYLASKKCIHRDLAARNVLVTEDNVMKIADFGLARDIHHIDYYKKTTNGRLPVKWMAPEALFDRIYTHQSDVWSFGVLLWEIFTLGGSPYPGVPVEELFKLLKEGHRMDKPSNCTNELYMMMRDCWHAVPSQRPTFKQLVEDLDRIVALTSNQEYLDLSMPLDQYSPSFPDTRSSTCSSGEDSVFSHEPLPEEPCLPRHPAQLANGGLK
Description: FGF-R1 protein kinase assay. It counts as biochemical. To be noted: for remaining activity at 10 µM: 10 μM compound; for residual kinase activity FGF-R1: 1 μm compound; for remaining activity at 1 µM: 1 μM compound.
Excerpt: as §1, §2, §3, §4

In another experiment the target is PKBb (Homo sapiens, UniProt P31751, S474D). Briefly: PKBb protein kinase assay.
Chain of PKBb (P31751 120-481 S474D): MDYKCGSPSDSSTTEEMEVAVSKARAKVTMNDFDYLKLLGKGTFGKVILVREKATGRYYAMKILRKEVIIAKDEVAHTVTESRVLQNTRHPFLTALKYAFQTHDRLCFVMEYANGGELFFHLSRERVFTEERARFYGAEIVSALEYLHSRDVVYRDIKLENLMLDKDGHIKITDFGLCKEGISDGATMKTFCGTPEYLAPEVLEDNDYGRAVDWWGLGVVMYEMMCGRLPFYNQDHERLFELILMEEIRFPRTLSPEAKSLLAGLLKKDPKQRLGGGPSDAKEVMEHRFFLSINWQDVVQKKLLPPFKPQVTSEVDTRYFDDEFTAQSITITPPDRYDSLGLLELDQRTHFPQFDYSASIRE
The mark [1] stands for this setting: read-out: residual kinase activity MNK1.
The mark [2] stands for this setting: read-out: residual kinase activity MAPKAP-K2.
Setting [3] is: read-out: residual kinase activity GSK3b.
[4] abbreviates: read-out: residual kinase activity BRSK2.
The mark [5] stands for this setting: read-out: residual kinase activity HIPK2.
[6] abbreviates: read-out: residual kinase activity FGF-R1.
Where [7] appears, read: read-out: residual kinase activity PKBb.
Where [8] appears, read: MNK1, read-out: residual kinase activity.
The mark [9] stands for this setting: MAPKAP-K2, read-out: residual kinase activity.
Where [10] appears, read: GSK3b, read-out: residual kinase activity.
Where [11] appears, read: BRSK2, read-out: residual kinase activity.
Where [12] appears, read: HIPK2, read-out: residual kinase activity.
[13] abbreviates: FGF-R1, read-out: residual kinase activity.
[14] abbreviates: read-out: residual kinase activity.

SMILES strings stand for the structures. Where a name gives a salt, the structure may show the parent alone. Read-outs that look alike come from different tables or passages of the source.

T2 sequence (P49137 46-400 limits assumed): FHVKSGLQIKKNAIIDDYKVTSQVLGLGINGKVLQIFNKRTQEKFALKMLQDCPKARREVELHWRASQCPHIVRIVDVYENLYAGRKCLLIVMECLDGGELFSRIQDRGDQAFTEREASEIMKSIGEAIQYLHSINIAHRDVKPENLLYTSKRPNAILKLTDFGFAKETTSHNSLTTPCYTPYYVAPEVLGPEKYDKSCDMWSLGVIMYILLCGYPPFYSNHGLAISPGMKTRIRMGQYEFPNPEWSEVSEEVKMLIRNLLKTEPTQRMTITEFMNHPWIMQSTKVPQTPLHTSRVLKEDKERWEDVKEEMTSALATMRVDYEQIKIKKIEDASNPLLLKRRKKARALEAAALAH
T1 sequence (Q9BUB5 whole entry): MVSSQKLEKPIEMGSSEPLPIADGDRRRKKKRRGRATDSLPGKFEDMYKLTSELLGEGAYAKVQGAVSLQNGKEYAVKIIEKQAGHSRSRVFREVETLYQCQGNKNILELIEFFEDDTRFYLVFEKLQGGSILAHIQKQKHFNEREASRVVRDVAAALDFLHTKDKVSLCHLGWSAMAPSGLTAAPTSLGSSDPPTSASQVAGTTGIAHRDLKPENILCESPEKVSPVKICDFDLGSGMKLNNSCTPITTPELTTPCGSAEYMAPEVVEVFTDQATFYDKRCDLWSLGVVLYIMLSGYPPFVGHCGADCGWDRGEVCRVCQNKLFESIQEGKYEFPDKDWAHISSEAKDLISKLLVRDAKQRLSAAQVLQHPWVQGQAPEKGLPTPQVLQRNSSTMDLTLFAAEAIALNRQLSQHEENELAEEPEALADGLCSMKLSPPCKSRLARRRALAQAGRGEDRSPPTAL

In the case of `O=C(NCCCNc1nc(Nc2cccc(F)c2)ncc1Br)C1CCC1` [Compound A, cyclobutanecarboxylic acid {3-[5-bromo-2-(3-fluoro-phenylamino)-pyrimidin-4-ylamino]-propyl}-amide, reference compound], the remaining activity at 10 µM at MNK1 (setting [1]) was 15%; at MAPKAP-K2 (setting [2]) it was 48%; on GSK3b (setting [3]) it was 4%; at BRSK2 (setting [4]), 6%; at HIPK2 (setting [5]), 12%; at FGF-R1 (setting [6]) it was 1%. Besides, the remaining activity at 10 µM on PKBb (setting [7]) stood at 93%. In addition, the “residual kinase activity MNK1” value at MNK1 is on record as 49%. Moreover, on MAPKAP-K2, the “residual kinase activity MAPKAP-K2” value is listed as 82%. Further, the “residual kinase activity GSK3b” value on GSK3b amounted to 23%. Besides, the “residual kinase activity BRSK2” value on BRSK2 is listed as 23%. Further, the “residual kinase activity HIPK2” value on HIPK2 amounted to 58%. At FGF-R1, the “residual kinase activity FGF-R1” value was found to be 17%. The remaining activity at 1 µM on PKBb (setting [7]) came to 91%.

Turning to `O=C(NCCCNc1nc(Nc2cccc(F)c2)ncc1C1CC1)C1CCC1` [Example 23, Cyclobutanecarboxylic acid {3-[5-cyclopropyl-2-(3-fluoro-phenylamino)-pyrimidin-4-ylamino]-propyl}-amide], the remaining activity at 10 µM on MNK1 (setting [1]) worked out at 62%; on MNK1 (setting [8]) it was 62%; on MAPKAP-K2 (setting [2]) it was 86%; on MAPKAP-K2 (setting [9]), 86%; on GSK3b (setting [3]), 20%; on GSK3b (setting [10]), 20%. For the same molecule, the remaining activity at 10 µM at BRSK2 (setting [4]) came to 26%; at BRSK2 (setting [11]) it was 26%; at HIPK2 (setting [5]) it was 26%; on HIPK2 (setting [12]), 26%; on FGF-R1 (setting [6]) it was 36%; on FGF-R1 (setting [13]), 36%. In addition, the remaining activity at 10 µM on PKBb (setting [14]) and on PKBb (setting [7]) was 114% each time. The “residual kinase activity MNK1” value on MNK1 amounted to 85%. Besides, the remaining activity at 1 µM on MNK1 (setting [8]) came to 85%; on MAPKAP-K2 (setting [9]) it was 77%; at GSK3b (setting [10]) it was 53%; on BRSK2 (setting [11]), 64%; at HIPK2 (setting [12]) it was 59%; at FGF-R1 (setting [13]), 89%. Also, the remaining activity at 1 µM at PKBb (setting [14]) and on PKBb (setting [7]) was 106% in each case. The “residual kinase activity MAPKAP-K2” value on MAPKAP-K2 is listed as 77%. The “residual kinase activity GSK3b” value at GSK3b is recorded as 53%. In addition, on BRSK2, the “residual kinase activity BRSK2” value amounted to 64%. Moreover, at HIPK2, the “residual kinase activity HIPK2” value came out at 59%. The “residual kinase activity FGF-R1” value at FGF-R1 is 89%.

Turning to `O=C(NCCCNc1nc(Nc2cccc(N3CCCC3=O)c2)ncc1C1CC1)c1cccs1` [Example 47, Thiophene-2-carboxylic acid (3-{5-cyclopropyl-2-[3-(2-oxo-pyrrolidin-1-yl)-phenylamino]-pyrimidin-4-ylamino}-propyl)-amide. Hydrochloride salt], the remaining activity at 1 µM is 93% at MNK1 (setting [8]); 75% at MAPKAP-K2 (setting [9]); 73% at GSK3b (setting [10]); 91% on BRSK2 (setting [11]); 88% at HIPK2 (setting [12]); 78% on FGF-R1 (setting [13]). For the same molecule, the remaining activity at 1 µM on PKBb (setting [14]) amounted to 117%. For the same molecule, the remaining activity at 10 µM is 73% on MNK1 (setting [8]); 95% at MAPKAP-K2 (setting [9]); 31% on GSK3b (setting [10]); 36% at BRSK2 (setting [11]); 67% at HIPK2 (setting [12]); 31% at FGF-R1 (setting [13]). The remaining activity at 10 µM on PKBb (setting [14]) stood at 97%.

Regarding `O=C(NCCCNc1nc(Nc2cccnc2)ncc1C1CC1)c1cccs1` [Example 50, Thiophene-2-carboxylic acid {3-[5-cyclopropyl-2-(pyridin-3-ylamino)-pyrimidin-4-ylamino]-propyl}-amide], the remaining activity at 1 µM amounted to 94% at MNK1 (setting [8]); 88% at MAPKAP-K2 (setting [9]); 52% at GSK3b (setting [10]); 87% at BRSK2 (setting [11]); 83% at HIPK2 (setting [12]); 77% at FGF-R1 (setting [13]). In addition, on PKBb (setting [14]), the remaining activity at 1 µM came out at 116%. In addition, the remaining activity at 10 µM came out at 81% at MNK1 (setting [8]); 85% at MAPKAP-K2 (setting [9]); 19% at GSK3b (setting [10]); 42% at BRSK2 (setting [11]); 54% on HIPK2 (setting [12]); 31% on FGF-R1 (setting [13]). Moreover, on PKBb (setting [14]), the remaining activity at 10 µM was 107%.

Source of the values: patent US20100056524A1, “Compound” (priority 2008, published 2010).
